Test system: murine fibrosarcomas (RIF-1 cells)
Experiment: Chemopotentiation of cisplatin by menadione: tumor growth delay of RIF-1 fibrosarcomas in C3H mice
Type: in vivo
Conditions: for Median (TVQT) / TVQT ± S.E. (mean tumor volume quadrupling time) / TVQT/CTVQT (ratio of treated over untreated control): intradermal RIF-1 tumors, female C3H mice; for Median (TVQT) / TVQT ± S.E. (mean tumor volume quadrupling time) / TVQT/CTVQT (ratio of treated over untreated control) / Delay: i.p., menadione 10 mg/kg, cisplatin 4 mg/kg, combination: menadione 30 min before cisplatin; for Delay: median treated minus median control, RIF-1 tumors, C3H mice
Procedure: Transplantable experimental murine fibrosarcomas (2×10^5 RIF-1 cells) were grown intradermally in the flanks of 3 month old female C3H mice (Charles River, Holister, Calif.). When the tumors reached a volume of approximately 100 mm^3, the mice were randomly assigned to each experimental group (4 mice per group). The experimental compositions were prepared as described in Table 1. Menadione was obtained from Sigma Chemical Co. (St. Louis, Mo.) and was made to the appropriate concentration in DMSO. Cisplatin (David Bull Laboratories- Mulgrave, Australia, lot. 5201844x) was made to the appropriate concentration in water for injection. The compositions were injected systemically (i.e., intraperitoneally, i.p.), in a volume of 100 microliters. For the treatment of group 3, menadione was injected 30 minutes prior to the injection of cisplatin. After treatment, the growth of the tumors was monitored three times per week by caliper measurements of three perpendicular diameters of the tumor and calculation of tumor volume from the formula: V=π/6×D1×D2×D3, where D1-3 are the diameters in mm along the three different perpendicular axes. The tumors were followed until they reached a size of four times their day zero treatment volume (TVQT), or up to 30 days after treatment, whichever came first. The data is expressed as the “tumor volume quadrupling time” (TVQT) mean and as the “delay.” Mean TVQT is the mean days required for individual tumors to grow to four times the tumor volume at the initial treatment day. The “delay” is the median of days required for a tumor to grow to four times the mean size of the treated group, minus the median of days required to grow to four times the mean size of the control group. The data is also expressed as the ratio of the tumor volume quadrupling time of the treated tumor over the untreated control group ([…]). Increasing values of this ratio indicate increased antitumor response.

| SMILES | antiproliferative activity of cisplatin when used with the chemopotentiator menadione (group 3 (menadione 10 mg/kg then cisplatin 4 mg/kg) versus either agent alone, more than additive effect) | Median (TVQT) | TVQT ± S.E. (mean tumor volume quadrupling time) | TVQT/CTVQT (ratio of treated over untreated control) | Delay |
| --- | --- | --- | --- | --- | --- |
| N.N.[Cl][Pt][Cl] [Cisplatin, cis-diamminedichloroplatinum II] | enhanced | 8.3 days | 8.4 ± 0.3 days | 1.3 | 1.44 days |
| CC1=CC(=O)c2ccccc2C1=O [Menadione, 2-Methyl-1,4-Naphthoquinone] | – | 7.5 days | 7.0 ± 0.5 days | 1.0 | 0.61 days |
